According to patent US11028088B2, “Modulators of BTK proteolysis and methods of use” (Yale University, priority 2018, dated 2021):
Counter-ions that a name gives are not always drawn. Like-named read-outs stand apart in the source and are kept apart here.

How the values were obtained:
BTK = BTK (Homo sapiens, UniProt Q06187); assay: BTK degradation in NAMALWA cells (immunoblot); format: cell-based; parameters: host or cells: NAMALWA; conditions: NAMALWA cells; for DC50: concentration needed to degrade 50% of the total pool of BTK
BTK, sequence (Q06187 whole entry): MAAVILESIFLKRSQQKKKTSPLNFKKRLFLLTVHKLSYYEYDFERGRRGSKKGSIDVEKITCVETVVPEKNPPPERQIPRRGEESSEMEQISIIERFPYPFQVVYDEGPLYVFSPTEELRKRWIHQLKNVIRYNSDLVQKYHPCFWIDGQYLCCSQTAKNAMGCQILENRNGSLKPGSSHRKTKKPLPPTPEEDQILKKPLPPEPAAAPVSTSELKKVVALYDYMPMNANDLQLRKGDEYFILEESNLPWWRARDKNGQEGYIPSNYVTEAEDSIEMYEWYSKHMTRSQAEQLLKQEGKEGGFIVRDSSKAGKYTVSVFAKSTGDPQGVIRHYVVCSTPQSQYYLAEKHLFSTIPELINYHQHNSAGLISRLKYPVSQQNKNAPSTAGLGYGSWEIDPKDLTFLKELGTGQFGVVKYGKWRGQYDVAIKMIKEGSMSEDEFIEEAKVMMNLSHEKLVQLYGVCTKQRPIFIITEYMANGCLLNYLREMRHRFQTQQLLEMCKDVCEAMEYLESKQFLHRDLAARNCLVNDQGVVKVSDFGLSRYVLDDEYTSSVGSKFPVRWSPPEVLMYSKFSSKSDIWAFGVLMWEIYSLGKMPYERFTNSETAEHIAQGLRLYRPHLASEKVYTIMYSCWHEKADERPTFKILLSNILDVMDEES
Experimental: NAMALWA and Jurkat cell lines were purchased from ATCC and cultured according to supplier guidelines at 37° C. […] Wild-type and C481S BTK XLA cell lines were cultured as previously described (39). Written, informed consent was obtained prior to the collection of cells from CLL patients using the IWCLL2008 criteria. Isolation of mononuclear cells from peripheral blood was prepared using density gradient centrifugation. B-cells were then negatively selected ([…] Technologies). […] They were maintained at 37° C. in 5% CO2.
Lysates were spun at 15,000×g for 10 min at 4° C. and supernatant was quantified for total protein content using the Pierce BCA Protein Assay (Thermo Fisher Scientific).
Either anti-rabbit or anti-mouse HRP-conjugated secondary antibodies (Pierce) were incubated with the membranes for 1 h at room temperature at 1:10,000 dilutions in 5% non-fat milk in IX TBS-T. Imaging was performed using the ECL Prime chemiluminescent western blot detection reagents (Amersham) followed by visualization with the Bio-Rad ChemiDoc imaging instrument. All western blots were subsequently processed and quantified using the accompanying Bio-Rad Image Lab software. […] All antibodies were used at 1:1,000 dilutions in 5% non-fat milk in 1×TBS-Tween (TBS-T) or Blotto blocker (Thermo Scientific) unless otherwise noted in supplier specifications.

HER3 = target: T1, HER3 (Homo sapiens, UniProt P21860); assay: HER3/ERBB3 degradation (western blot, OVCAR8 cells); format: cell-based
T1 construct: endogenous in cells; host or cells: OVCAR8
T1 sequence (P21860 20-1342): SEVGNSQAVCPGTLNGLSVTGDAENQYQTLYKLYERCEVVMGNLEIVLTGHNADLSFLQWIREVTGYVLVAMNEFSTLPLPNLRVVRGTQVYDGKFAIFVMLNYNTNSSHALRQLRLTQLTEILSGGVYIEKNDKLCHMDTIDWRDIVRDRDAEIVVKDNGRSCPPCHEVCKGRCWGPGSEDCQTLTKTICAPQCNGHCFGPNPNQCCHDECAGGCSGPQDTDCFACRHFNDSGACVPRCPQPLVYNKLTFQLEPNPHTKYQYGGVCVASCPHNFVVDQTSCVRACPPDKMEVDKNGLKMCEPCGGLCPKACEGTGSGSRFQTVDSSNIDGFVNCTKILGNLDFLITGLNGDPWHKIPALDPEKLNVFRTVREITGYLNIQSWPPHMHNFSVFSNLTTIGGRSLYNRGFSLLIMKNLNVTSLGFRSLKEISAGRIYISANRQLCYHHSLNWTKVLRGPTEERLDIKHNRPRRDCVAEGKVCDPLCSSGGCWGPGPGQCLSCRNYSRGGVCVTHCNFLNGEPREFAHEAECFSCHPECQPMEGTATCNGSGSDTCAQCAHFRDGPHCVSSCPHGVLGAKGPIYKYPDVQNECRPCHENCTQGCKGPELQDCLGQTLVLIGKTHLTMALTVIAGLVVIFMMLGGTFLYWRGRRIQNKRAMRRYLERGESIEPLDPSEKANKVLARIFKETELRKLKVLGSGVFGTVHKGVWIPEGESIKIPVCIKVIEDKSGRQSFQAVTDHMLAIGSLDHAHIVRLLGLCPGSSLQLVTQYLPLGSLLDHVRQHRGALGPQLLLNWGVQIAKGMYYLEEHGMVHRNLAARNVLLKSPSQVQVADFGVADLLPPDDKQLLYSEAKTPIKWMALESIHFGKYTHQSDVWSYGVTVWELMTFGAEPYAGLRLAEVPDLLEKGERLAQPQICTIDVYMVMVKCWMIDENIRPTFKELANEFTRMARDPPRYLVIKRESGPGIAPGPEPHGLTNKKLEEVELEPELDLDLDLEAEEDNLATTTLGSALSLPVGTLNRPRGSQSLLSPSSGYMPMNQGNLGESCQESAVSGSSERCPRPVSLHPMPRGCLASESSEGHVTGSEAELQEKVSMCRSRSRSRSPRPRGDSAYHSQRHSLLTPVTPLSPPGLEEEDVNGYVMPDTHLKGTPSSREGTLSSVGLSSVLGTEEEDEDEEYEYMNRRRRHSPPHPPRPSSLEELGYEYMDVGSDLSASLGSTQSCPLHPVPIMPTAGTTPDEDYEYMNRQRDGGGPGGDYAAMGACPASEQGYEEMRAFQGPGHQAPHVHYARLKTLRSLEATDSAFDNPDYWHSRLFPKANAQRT
Experimental: FIG. 10 illustrates a Western blot of Compound 102-related degradation of ERBB3.
In various embodiments, treatment with PROTAC was performed in one of two ways: 1) For experiments involving >16 h exposure to compound, a 1000× stock was added to cells followed by gentle agitation; 2) For shorter treatments, a 2× stock was added to an equal volume of cells to ensure uniform drug exposure. For immortalized cell lines, 2×10^6 cells per treatment condition were collected and washed once with ice cold PBS (IX), followed by lysis in buffer containing 20 mM Tris [pH 8.0], 0.25% sodium deoxycholate, 1% Triton X-100, supplemented with protease (Roche) and phosphatase inhibitors (10 mM NaF, 2 mM Na3VO4, 10 mM β-glycerophosphate, 10 mM Na-pyrophosphate). Lysates were spun at 15,000×g for 10 min at 4° C. and supernatant was quantified for total protein content using the Pierce BCA Protein Assay (Thermo Fisher Scientific). 30 μg of protein was loaded onto 12% SDS-PAGE gels or 4-15% Mini-PROTEAN TGX precast gradient gels (Bio-Rad), transferred onto nitrocellulose membranes, and probed with the specified primary antibodies overnight with rocking at 4° C. in 1×TBS-T containing 5% non-fat milk.
Either anti-rabbit or anti-mouse HRP-conjugated secondary antibodies (Pierce) were incubated with the membranes for 1 h at room temperature at 1:10,000 dilutions in 5% non-fat milk in IX TBS-T. Imaging was performed using the ECL Prime chemiluminescent western blot detection reagents (Amersham) followed by visualization with the Bio-Rad ChemiDoc imaging instrument. All western blots were subsequently processed and quantified using the accompanying Bio-Rad Image Lab software. Primary antibodies used were: Anti-actin antibody (Cat. #MA 1-744) purchased from ThermoFisher Scientific; anti-BTK (Cat. #8547), anti-pBTK (Y223, Cat. #5082), anti-ITK (Cat. #2380), anti-GAPDH (Cat. #5179), anti-IKZF1 (Cat. #9034), and anti-IKZF3 (Cat. #15103) antibodies purchased from Cell Signaling Technology. All antibodies were used at 1:1,000 dilutions in 5% non-fat milk in 1×TBS-Tween (TBS-T) or Blotto blocker (Thermo Scientific) unless otherwise noted in supplier specifications.

C481S BTK = C481S BTK (Homo sapiens, UniProt Q06187, C481S); assay: In vitro kinase inhibition, recombinant C481S BTK, 10 μM ATP
C481S BTK, sequence (Q06187 whole entry C481S): as the sequence (Q06187 whole entry) above, with C481S counted along it

JAK3 = target: T2, JAK3 (Homo sapiens, UniProt P52333); assay: KINOMEscan competition binding assay, JAK3; conditions: read-out: KINOMEscan percentage of control, JAK3
T2 construct: purchased DiscoverX (KINOMEscan service)
T2 sequence (P52333 811-1124 limits assumed): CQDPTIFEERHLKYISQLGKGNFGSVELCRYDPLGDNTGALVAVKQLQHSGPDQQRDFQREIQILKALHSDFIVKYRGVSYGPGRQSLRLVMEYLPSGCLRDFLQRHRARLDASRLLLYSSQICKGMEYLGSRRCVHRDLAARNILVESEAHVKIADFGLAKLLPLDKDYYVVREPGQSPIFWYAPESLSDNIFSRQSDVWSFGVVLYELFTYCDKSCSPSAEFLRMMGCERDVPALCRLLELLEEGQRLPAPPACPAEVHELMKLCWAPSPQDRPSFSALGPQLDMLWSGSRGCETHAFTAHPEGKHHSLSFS

BLK = BLK (Homo sapiens, UniProt P51451); assay: KINOMEscan competition binding assay, BLK; conditions: read-out: KINOMEscan percentage of control, BLK
BLK, sequence (P51451 whole entry): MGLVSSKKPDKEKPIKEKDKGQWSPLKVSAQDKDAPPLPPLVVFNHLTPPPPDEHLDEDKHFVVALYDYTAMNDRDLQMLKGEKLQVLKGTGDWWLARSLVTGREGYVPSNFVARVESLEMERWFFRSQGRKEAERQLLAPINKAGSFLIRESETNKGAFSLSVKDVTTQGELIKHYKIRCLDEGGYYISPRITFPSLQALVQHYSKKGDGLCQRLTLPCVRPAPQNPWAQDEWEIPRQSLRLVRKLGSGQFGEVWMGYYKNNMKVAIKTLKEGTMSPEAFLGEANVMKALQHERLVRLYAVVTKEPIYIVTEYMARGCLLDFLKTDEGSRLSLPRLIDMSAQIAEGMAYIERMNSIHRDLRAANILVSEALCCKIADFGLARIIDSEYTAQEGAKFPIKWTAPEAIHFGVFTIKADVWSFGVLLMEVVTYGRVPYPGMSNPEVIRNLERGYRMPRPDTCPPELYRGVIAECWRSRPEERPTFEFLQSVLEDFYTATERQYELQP

TEC = target: T3, TEC (Homo sapiens, UniProt P42680); assay: KINOMEscan competition binding assay, TEC; conditions: read-out: KINOMEscan percentage of control, TEC
T3 sequence (P42680 1-631): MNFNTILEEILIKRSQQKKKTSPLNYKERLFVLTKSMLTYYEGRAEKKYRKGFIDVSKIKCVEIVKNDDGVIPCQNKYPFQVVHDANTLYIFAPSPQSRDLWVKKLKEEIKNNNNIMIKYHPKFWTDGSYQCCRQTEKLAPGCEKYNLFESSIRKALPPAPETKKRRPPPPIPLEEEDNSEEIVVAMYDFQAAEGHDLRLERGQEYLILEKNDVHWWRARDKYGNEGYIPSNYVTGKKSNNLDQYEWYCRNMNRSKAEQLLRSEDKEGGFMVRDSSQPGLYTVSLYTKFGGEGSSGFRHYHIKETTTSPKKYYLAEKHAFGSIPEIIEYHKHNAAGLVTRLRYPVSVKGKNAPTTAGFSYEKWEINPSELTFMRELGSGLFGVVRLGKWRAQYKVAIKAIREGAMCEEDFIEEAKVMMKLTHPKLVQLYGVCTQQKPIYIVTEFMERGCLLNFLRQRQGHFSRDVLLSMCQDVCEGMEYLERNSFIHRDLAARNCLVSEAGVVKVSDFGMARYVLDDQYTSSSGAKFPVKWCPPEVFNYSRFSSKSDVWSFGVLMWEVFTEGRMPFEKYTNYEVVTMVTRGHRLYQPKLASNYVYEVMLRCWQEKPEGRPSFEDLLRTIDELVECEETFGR

ITK = target: T4, ITK (Homo sapiens, UniProt Q08881); assay: KINOMEscan competition binding assay, ITK; parameters: purchased DiscoverX (KINOMEscan service); conditions: read-out: KINOMEscan percentage of control, ITK
T4 sequence (Q08881 1-620): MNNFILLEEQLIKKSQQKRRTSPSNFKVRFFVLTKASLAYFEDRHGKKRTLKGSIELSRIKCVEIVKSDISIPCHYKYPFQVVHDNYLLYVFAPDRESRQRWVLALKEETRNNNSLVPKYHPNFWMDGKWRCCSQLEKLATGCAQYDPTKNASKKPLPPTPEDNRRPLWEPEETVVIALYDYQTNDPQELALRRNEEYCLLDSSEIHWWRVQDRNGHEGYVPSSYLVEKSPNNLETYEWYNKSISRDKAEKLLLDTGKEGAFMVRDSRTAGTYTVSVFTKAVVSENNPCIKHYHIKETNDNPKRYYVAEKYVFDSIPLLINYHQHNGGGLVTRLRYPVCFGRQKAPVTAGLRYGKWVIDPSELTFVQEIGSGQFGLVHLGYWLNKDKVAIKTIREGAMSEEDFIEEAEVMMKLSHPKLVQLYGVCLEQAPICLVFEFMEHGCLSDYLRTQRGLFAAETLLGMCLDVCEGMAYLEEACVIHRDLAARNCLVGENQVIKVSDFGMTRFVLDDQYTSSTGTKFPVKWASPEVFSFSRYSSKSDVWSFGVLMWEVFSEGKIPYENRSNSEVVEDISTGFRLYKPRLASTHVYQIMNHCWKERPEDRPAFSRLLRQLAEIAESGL

MKK7 = target: T5, MKK7 (Homo sapiens, UniProt O14733); assay: KINOMEscan competition binding assay, MKK7; conditions: read-out: KINOMEscan percentage of control, MKK7
T5 construct: purchased DiscoverX (KINOMEscan service)
T5 sequence (O14733 1-419): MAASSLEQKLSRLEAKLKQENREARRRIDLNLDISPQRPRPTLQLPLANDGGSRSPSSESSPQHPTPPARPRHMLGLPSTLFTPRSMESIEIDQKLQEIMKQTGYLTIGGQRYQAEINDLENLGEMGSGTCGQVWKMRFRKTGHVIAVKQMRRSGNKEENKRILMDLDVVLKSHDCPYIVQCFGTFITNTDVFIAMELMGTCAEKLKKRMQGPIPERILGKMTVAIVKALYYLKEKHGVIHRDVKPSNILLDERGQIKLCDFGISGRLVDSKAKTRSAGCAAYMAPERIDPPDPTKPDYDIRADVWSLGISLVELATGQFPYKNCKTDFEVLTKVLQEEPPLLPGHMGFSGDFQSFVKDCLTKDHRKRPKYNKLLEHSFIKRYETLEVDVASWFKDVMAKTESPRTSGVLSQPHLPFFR

| HER3 Degradation (HER3) | DC50 (BTK) | Structure (SMILES) | other results |
| --- | --- | --- | --- |
| No | – | Cc1ncsc1-c1ccc(CNC(=O)[C@@H]2C[C@@H](O)CN2C(=O)[C@@H](NC(=O)COCCOCCOCCOCCOCCCCCCN2CCC(n3nc(-c4ccc(Oc5ccccc5)cc4)c4c(N)ncnc43)CC2)C(C)(C)C)cc1 [Compound 118, (2S,4R)-1-((S)-25-(4-(4-amino-3-(4-phenoxyphenyl)-1H-pyrazolo[3,4-d]pyrimidin-1-yl)piperidin-1-yl)-2,2-dimethyl-5-oxo-7,10,13,16,19-pentaoxa-4-azapentacosanecarbonyl)-4-hydroxy-N-(4-(4-methylthiazol-5-yl)benzyl)pyrrolidine-2-carboxamide] | DC50 (BTK; read-out: DC50): 231 nM; Max (BTK; maximal BTK degradation, at 1.0 μM): 40% |
| No | No Degradation | Cc1ncsc1-c1ccc(CNC(=O)[C@@H]2C[C@@H](O)CN2C(=O)[C@@H](NC(=O)CCCCCOCCOCCOCCOCCCCCCN2CCC(n3nc(-c4ccc(Oc5ccccc5)cc4)c4c(N)ncnc43)CC2)C(C)(C)C)cc1 [Compound 119, (2S,4R)-1-((S)-26-(4-(4-amino-3-(4-phenoxyphenyl)-1H-pyrazolo[3,4-d]pyrimidin-1-yl)piperidin-1-yl)-2,2-dimethyl-5-oxo-11,14,17,20-tetraoxa-4-azahexacosanecarbonyl)-4-hydroxy-N-(4-(4-methylthiazol-5-yl)benzyl)pyrrolidine-2-carboxamide] | – |
| No | No Degradation | Cc1ncsc1-c1ccc(CNC(=O)[C@@H]2C[C@@H](O)CN2C(=O)[C@@H](NC(=O)CCCCCOCCOCCOCCOCCOCCCCCCN2CCC(n3nc(-c4ccc(Oc5ccccc5)cc4)c4c(N)ncnc43)CC2)C(C)(C)C)cc1 [Compound 120, (2S,4R)-1-((S)-29-(4-(4-amino-3-(4-phenoxyphenyl)-1H-pyrazolo[3,4-d]pyrimidin-1-yl)piperidin-1-yl)-2,2-dimethyl-5-oxo-11,14,17,20,23-pentaoxa-4-azanonacosanecarbonyl)-4-hydroxy-N-(4-(4-methylthiazol-5-yl)benzyl)pyrrolidine-2-carboxamide] | – |
| No | No Degradation | C=CC(=O)Nc1cc(-c2nn(C3CCN(CCCOCCCOCCC(=O)Nc4cccc5c4C(=O)N(C4CCC(=O)NC4=O)C5=O)CC3)c3ncnc(N)c23)ccc1Oc1ccccc1 (centres unmarked) [Compound 121, N-(5-(4-amino-1-(1-(3-(3-(3-(2-(2,6-dioxopiperidin-3-yl)-1,3-dioxoisoindolin-4-ylamino)-3-oxopropoxy)propoxy)propyl)piperidin-4-yl)-1H-pyrazolo[3,4-d]pyrimidin-3-yl)-2-phenoxyphenyl)acrylamide] | – |
| – | – | Nc1ncnc2c1c(-c1ccc(Oc3ccccc3)cc1)nn2C1CCNCC1 [compound 1, 3-(4-phenoxyphenyl)-1-(piperidin-4-yl)-1H-pyrazolo[3,4-d]pyrimidin-4-amine hydrochloride, reference compound] | inhibition potency against C481S mutant BTK (C481S BTK): retained inhibition potency |
| – | – | C=CC(=O)N1CCC[C@@H](n2nc(-c3ccc(Oc4ccccc4)cc3)c3c(N)ncnc32)C1 [ibrutinib, reference compound] | remaining binding at 1 µM (JAK3): < 10%; remaining binding at 1 µM (BLK): 0.1%; remaining binding at 1 µM (TEC): 1.9%; remaining binding at 1 µM (ITK): < 10%; remaining binding at 1 µM (MKK7): < 10% |

| Structure (SMILES) | HER3 Degradation (HER3) | DC50 (BTK) | other results |
| --- | --- | --- | --- |
| C=CC(=O)Nc1cc(-c2nn(C3CCN(CCCCOCCCCOCC(=O)Nc4cccc5c4C(=O)N(C4CCC(=O)NC4=O)C5=O)CC3)c3ncnc(N)c23)ccc1Oc1ccccc1 (centres unmarked) [Compound 122, N-(5-(4-amino-1-(1-(4-(4-(2-(2-(2,6-dioxopiperidin-3-yl)-1,3-dioxoisoindolin-4-ylamino)-2-oxoethoxy)butoxy)butyl)piperidin-4-yl)-1H-pyrazolo[3,4-d]pyrimidin-3-yl)-2-phenoxyphenyl)acrylamide] | No | No Degradation | – |
